Test results from patent US9303042B2, “Triazolothienopyrimidine compound inhibitors of urea transporters and methods of using inhibitors” (The Regents of the University of California, priority 2012, dated 2016).
Like-named read-outs stand apart in the source and are kept apart here.

Key:
AQP1 = target: T1, AQP1 (Mus musculus, UniProt Q02013); assay: Erythrocyte osmotic water permeability by stopped-flow light scattering, wild type erythrocytes; type: cell-based; settings: 100 mM sucrose gradient, 10 °C
T1 construct: endogenous in cells; host or cells: erythrocytes of wild-type CD1 mice
T1 sequence (Q02013 1-269): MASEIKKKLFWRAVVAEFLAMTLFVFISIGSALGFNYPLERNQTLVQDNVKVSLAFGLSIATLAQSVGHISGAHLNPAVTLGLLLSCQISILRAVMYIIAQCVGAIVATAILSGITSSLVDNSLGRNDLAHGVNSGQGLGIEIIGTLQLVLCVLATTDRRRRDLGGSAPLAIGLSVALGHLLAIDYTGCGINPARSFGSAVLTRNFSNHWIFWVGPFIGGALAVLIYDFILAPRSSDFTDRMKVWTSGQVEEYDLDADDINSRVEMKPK
Procedure: (§1) Erythrocyte urea and water permeabilities were measured by stopped-flow light scattering using a Hi-Tech Sf-51 instrument (Wiltshire, UK). […] Urea permeability and percentage inhibition were computed as described (see, e.g., Levin et al., FASEB J. supra, 2007)). In some experiments, different urea gradients (25-200 mM) were used, or inhibitor was added only to the erythrocyte-containing or urea-containing solutions. In some experiments an outwardly directed urea gradient was used in which erythrocytes were incubated for 30 min with PBS containing specified urea and mixed in the stopped-flow apparatus with PBS. In reversibility experiments, erythrocytes were incubated for 30 min with inhibitor, washed three times to remove inhibitor, and urea transport assayed. Osmotic water permeability was measured using a 100 mM gradient of sucrose.
(§2) Erythrocyte osmotic water permeability was measured by stopped-flow light scattering. […] Life Sci. 52:474-78 (2009)).

AQP1-null erythrocytes = assay: Erythrocyte osmotic water permeability by stopped-flow light scattering, AQP1-null erythrocytes; type: cell-based, mouse; settings: 100 mM sucrose gradient, 10 °C
Procedure: as §1, §2

TMEM16A = target: T2, TMEM16A (Homo sapiens, UniProt Q5XXA6); assay: TMEM16A calcium-activated chloride conductance by short-circuit current; type: cell-based; settings: 10 μM, ATP-activated
T2 construct: expressed in transfected cells
T2 sequence (Q5XXA6 1-986): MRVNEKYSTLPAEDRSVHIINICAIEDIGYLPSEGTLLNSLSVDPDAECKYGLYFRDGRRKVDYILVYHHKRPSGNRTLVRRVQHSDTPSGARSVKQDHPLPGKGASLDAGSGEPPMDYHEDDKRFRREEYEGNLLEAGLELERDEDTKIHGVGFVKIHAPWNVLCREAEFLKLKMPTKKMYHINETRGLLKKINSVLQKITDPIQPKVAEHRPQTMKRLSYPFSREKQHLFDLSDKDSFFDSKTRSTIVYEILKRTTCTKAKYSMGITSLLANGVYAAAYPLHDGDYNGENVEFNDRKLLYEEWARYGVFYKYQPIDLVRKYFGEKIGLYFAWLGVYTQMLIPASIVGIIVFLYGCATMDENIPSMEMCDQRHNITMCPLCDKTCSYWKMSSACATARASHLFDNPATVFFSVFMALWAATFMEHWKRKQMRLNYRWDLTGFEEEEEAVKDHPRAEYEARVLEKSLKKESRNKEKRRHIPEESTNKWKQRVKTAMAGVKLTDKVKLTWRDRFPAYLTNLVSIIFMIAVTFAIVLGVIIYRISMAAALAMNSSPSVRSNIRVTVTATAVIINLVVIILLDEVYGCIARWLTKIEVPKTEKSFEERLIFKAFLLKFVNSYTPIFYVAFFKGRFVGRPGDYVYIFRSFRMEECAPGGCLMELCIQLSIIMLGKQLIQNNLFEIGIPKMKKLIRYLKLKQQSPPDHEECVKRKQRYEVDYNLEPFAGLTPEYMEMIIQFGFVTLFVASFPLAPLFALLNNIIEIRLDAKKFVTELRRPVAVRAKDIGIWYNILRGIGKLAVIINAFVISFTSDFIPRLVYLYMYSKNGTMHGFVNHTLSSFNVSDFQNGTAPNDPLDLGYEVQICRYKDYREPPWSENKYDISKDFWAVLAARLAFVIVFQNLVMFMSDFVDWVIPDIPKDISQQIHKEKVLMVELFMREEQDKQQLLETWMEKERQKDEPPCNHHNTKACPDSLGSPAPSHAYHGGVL
Procedure: CFTR chloride conductance was measured by short-circuit current analysis in Fisher rat thyroid (FRT) cells stably expressing CFTR, as described (see, e.g., Ma et al., J. Biol. Chem. (2002), supra). CFTR chloride conductance was stimulated by forskolin and inhibited by a thiazolidinone compound that inhibits CFTR (CFTRinh-172). TMEM16A calcium-activated chloride conductance was measured by short-circuit current analysis in FRT cells stably expressing TMEM16A, as described (see, e.g., Namkung et al., J. Biol. Chem. 286:2365-2374, 2011. TMEM16A was stimulated by ATP and inhibited by tannic acid (100 μM). Cytotoxicity was measured in MDCK using the MTT assay [3(4,5-dimethyl-thiazol-2-yl)-2,5-diphenyl tetrazolium bromide] by standard procedures.

UT-B = target: T3, UT-B (Mus musculus, UniProt Q8VHL0); assay: Erythrocyte lysis assay of UT-B inhibition; type: cell-based; parameters: Screening was performed using mouse erythrocytes, which strongly express UT-B; endogenous in cells; host or cells: erythrocytes in whole blood of wild-type CD1 mice; settings: read-out: IC50
T3 sequence (Q8VHL0 1-384): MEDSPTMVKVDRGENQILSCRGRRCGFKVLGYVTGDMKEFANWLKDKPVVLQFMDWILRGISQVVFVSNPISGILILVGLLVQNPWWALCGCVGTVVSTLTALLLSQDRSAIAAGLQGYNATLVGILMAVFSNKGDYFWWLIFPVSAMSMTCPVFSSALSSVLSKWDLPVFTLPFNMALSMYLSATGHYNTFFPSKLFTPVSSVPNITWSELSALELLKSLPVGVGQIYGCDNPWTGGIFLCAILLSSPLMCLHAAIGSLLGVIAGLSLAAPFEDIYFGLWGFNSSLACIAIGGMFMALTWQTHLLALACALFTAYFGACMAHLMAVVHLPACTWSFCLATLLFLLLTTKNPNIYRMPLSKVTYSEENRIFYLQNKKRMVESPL
How it was run: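 Mouse erythrocytes (expressing UT-B and AQP1) subjected to an outward acetamide gradient; UT-B inhibition blocks acetamide efflux, causing swelling and lysis. Lysis quantified by absorbance at 710 nm within 5 min of hypo-osmolar shock.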

CCc1ccc(S(=O)(=O)c2nnn3c2nc(NCc2cccs2)c2sccc23)cc1 [UTBinh-14, [3-(4-Ethyl-benzenesulfonyl)-thieno[2,3-e][1,2,3]triazolo[1,5-a]pyrimidin-5-yl]-thiophen-2-ylmethylamine]
inhibition of water transport in erythrocytes from wild type mice (AQP1): no significant inhibition
water transport in AQP1-null erythrocytes (AQP1-null erythrocytes): inhibited water transport significantly
inhibition of TMEM16A chloride conductance (TMEM16A): no significant inhibition
IC50 (UT-B; Table 2, synthesized inhibitors, red blood cell lysis assay (n = 3), single-site saturation model): 11 nM
IC50 (UT-B; erythrocyte lysis assay): 22 nM
